Laboratory results from ChEMBL document CHEMBL5241095, “Developments of CRBN-based PROTACs as potential therapeutic agents” (Eur J Med Chem, 2021).
pIC50: −log10 of the molar value.

How the values were obtained:
[1] = target: T1, Protein cereblon/Bcl-2-like protein 1 (Homo sapiens, UniProt Q07817+Q96SW2); test: Protac activity at CRBN/BCL-XL in human WI-38 cells; assay type: cell-based
Target sequence in this assay (Q07817 whole entry): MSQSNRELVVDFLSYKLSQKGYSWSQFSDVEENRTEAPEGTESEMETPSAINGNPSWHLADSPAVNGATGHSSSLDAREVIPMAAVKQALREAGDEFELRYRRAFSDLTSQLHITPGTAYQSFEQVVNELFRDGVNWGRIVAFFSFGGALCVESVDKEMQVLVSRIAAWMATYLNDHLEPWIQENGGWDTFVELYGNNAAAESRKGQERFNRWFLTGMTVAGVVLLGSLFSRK
Target sequence in this assay (Q96SW2 whole entry): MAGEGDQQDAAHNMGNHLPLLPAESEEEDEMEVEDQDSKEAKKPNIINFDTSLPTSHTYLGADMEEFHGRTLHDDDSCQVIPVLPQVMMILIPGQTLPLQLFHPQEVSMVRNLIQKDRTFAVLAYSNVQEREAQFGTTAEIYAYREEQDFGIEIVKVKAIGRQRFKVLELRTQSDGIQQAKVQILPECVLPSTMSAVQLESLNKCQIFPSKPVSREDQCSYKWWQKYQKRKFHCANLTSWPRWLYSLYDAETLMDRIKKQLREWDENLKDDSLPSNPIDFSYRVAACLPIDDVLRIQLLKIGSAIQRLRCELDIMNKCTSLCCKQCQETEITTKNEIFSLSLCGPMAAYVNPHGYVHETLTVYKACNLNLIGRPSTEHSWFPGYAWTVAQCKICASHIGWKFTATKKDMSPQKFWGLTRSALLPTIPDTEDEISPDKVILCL

[2] = target: T1, Protein cereblon/Bcl-2-like protein 1; test: Protac activity at CRBN/BCL-XL in human WI-38 cells relative to control; assay type: cell-based
Target sequence in this assay (Q07817 whole entry, looked up): as the sequence (Q07817 whole entry) above
Target sequence in this assay (Q96SW2 whole entry, looked up): as the sequence (Q96SW2 whole entry) above

[3] = target: Protein cereblon/Cyclin-dependent kinase 9 (Homo sapiens) (UniProt P50750+Q96SW2); test: Protac activity at CRBN/CDK9 in human HCT-116 cells at 20 uM relative to control; assay type: cell-based
HepG2 = test: Antiproliferative activity against human HepG2 cells assessed as cell growth inhibition; assay type: functional, cell-based
A549 = test: Antiproliferative activity against human A549 cells assessed as cell growth inhibition; assay type: functional, cell-based
Huh-7 = test: Antiproliferative activity against human Huh-7 cells assessed as cell growth inhibition; assay type: functional, cell-based
[4] = target: Protein cereblon/Protein deacetylase HDAC6 (Homo sapiens, UniProt Q9UBN7+Q96SW2); test: Protac activity at CRBN/HDAC6 in human MM1.S cells incubated for 5 hrs by ELISA analysis; assay type: cell-based
[5] = target: T2, Protein cereblon/Signal transducer and activator of transcription 3 (Homo sapiens) (UniProt P40763+Q96SW2); test: Protac activity at CRBN/STAT3 in human DEL cells at 250 nM measured after 7 hrs by immunoblotting analysis relative to control; assay type: cell-based
T2 sequence (P40763 2-770 limits assumed): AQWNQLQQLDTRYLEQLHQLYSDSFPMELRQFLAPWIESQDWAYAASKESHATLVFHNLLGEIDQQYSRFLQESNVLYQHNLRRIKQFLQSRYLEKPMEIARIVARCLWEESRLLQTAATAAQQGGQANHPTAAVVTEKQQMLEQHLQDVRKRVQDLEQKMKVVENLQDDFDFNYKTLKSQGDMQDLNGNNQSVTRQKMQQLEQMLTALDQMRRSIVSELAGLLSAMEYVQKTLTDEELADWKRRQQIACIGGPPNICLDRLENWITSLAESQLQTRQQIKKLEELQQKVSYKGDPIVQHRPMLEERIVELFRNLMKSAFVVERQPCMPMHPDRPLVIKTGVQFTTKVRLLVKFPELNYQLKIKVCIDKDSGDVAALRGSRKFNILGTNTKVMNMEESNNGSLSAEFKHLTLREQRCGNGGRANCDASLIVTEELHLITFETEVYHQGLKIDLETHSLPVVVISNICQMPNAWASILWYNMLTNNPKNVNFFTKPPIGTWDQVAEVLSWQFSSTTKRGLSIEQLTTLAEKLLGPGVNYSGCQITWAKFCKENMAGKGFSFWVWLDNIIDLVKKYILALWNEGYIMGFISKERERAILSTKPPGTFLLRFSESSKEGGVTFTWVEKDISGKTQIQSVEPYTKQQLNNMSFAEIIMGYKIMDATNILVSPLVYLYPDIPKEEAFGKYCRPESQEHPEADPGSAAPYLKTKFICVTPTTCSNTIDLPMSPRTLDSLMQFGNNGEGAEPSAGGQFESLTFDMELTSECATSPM
T2 sequence (Q96SW2 whole entry partner): as the sequence (Q96SW2 whole entry) above

[6] = target: T2, Protein cereblon/Signal transducer and activator of transcription 3 (Homo sapiens); test: Protac activity at CRBN/STAT3 in human Ki-JK cells at 250 nM measured after 7 hrs by immunoblotting analysis relative to control; assay type: cell-based
[7] = target: T2, Protein cereblon/Signal transducer and activator of transcription 3 (Homo sapiens); test: Protac activity at CRBN/STAT3 in human MOLM16 cells at 250 nM measured after 4 hrs by immunoblotting analysis relative to control; assay type: cell-based
[8] = target: T2, Protein cereblon/Signal transducer and activator of transcription 3 (Homo sapiens); test: Protac activity at CRBN/STAT3 in human SU-DHL-1 cells at 250 nM measured after 7 hrs by immunoblotting analysis relative to control; assay type: cell-based
Protein cereblon/Basigin [9] = target: T3, Protein cereblon/Basigin (Homo sapiens, UniProt P35613+Q96SW2); test: Protac activity at CRBN/CD147 in human BV-173 cells by Western blotting analysis; assay type: cell-based
T3 sequence (P35613 whole entry): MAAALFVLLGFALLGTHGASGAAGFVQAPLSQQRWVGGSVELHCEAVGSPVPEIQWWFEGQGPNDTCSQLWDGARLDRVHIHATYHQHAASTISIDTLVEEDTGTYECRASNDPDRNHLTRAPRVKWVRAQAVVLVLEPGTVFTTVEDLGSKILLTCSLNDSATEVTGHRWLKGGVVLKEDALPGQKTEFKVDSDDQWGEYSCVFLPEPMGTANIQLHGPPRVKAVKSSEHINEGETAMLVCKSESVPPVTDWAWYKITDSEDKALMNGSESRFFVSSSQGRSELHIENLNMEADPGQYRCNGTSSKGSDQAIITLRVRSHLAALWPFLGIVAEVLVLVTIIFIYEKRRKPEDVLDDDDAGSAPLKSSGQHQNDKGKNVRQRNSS
T3 sequence (Q96SW2 whole entry): as the sequence (Q96SW2 whole entry) above

MV4-11 = test: Antiproliferative activity against human MV4-11 cells assessed as cell growth inhibition; assay type: functional, cell-based
MOLM-13 = test: Antiproliferative activity against human MOLM-13 cells assessed as cell growth inhibition; assay type: functional, cell-based
RS4-11 = test: Antiproliferative activity against human RS4-11 cells assessed as cell growth inhibition; assay type: functional, cell-based
[10] = target: Protein cereblon/Indoleamine 2,3-dioxygenase 1 (Homo sapiens) (UniProt P14902+Q96SW2); test: Protac activity at CRBN/IDO1 in human HeLa cells incubated for 24 hrs by Western blotting analysis relative to control; assay type: cell-based
Sequence of Protein cereblon/Indoleamine 2,3-dioxygenase 1 (Homo sapiens) (P14902 whole entry, looked up): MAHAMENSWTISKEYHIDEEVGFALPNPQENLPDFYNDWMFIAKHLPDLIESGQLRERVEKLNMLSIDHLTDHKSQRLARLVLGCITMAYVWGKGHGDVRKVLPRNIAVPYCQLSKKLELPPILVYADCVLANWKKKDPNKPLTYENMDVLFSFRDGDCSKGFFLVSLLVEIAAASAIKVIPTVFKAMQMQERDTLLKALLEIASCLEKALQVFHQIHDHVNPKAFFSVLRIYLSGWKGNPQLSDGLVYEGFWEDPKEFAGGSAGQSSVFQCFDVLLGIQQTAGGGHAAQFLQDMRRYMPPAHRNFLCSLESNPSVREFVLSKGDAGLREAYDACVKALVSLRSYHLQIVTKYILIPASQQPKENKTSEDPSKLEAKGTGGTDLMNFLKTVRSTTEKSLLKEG
Sequence of Protein cereblon/Indoleamine 2,3-dioxygenase 1 (Homo sapiens) (Q96SW2 whole entry, looked up): as the sequence (Q96SW2 whole entry) above

PC-3 = test: Antiproliferative activity against human PC-3 cells assessed as inhibition of cell growth; assay type: functional, cell-based
Protein cereblon/Basigin [11] = target: T3, Protein cereblon/Basigin; test: Protac activity at CRBN/CD147 in human SK-MEL-28 cells by Western blotting analysis; assay type: cell-based
[12] = target: Protein cereblon/Retinal rod rhodopsin-sensitive cGMP 3',5'-cyclic phosphodiesterase subunit delta (Homo sapiens) (UniProt O43924+Q96SW2); test: Protac activity at CRBN/PDE6D in human Jurkat cells at […] incubated for 24 hrs by immunoblotting analysis relative to control; assay type: cell-based
[13] = target: T4, Protein cereblon/GTPase KRas (Homo sapiens, UniProt P01116+Q96SW2, G12C); test: Protac activity at CRBN/KRAS G12C mutant in human NCI-H358 cells incubated for 16 hrs by immunoblotting analysis; assay type: cell-based
T4 sequence (P01116 whole entry G12C, stated change not applied): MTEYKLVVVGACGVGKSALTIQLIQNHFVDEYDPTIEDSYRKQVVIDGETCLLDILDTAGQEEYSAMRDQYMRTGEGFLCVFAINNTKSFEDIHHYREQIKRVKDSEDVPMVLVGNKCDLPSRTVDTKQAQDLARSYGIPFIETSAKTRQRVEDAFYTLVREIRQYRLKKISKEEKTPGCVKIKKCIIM
T4 sequence (Q96SW2 whole entry, stated change not applied): as the sequence (Q96SW2 whole entry) above

[14] = target: T4, Protein cereblon/GTPase KRas; test: Protac activity at CRBN/KRAS G12C mutant in human MIA PaCa-2 cells incubated for 16 hrs by immunoblotting analysis; assay type: cell-based
[15] = target: Protein cereblon/Protein deacetylase HDAC6 (Homo sapiens, UniProt Q96SW2+Q9UBN7); test: Protac activity at CRBN/HDAC6 in human MM1.S cells incubated for 24 hrs by Immunoblotting analysis; assay type: cell-based
[16] = target: Protein cereblon/Tyrosine-protein kinase BTK (Homo sapiens, UniProt Q06187+Q96SW2); test: Protac activity at CRBN/BTK in human MOLM-14 cells at 0.2 uM relative to control; assay type: cell-based

Compound: CC1(C)CCC(c2ccc(Cl)cc2)=C(CN2CCN(c3ccc(C(=O)NS(=O)(=O)c4ccc(N[C@H](CCN5CCN(C(=O)CCCn6cc(COCCCNc7cccc8c7C(=O)N(C7CCC(=O)NC7=O)C8=O)nn6)CC5)CSc5ccccc5)c(S(=O)(=O)C(F)(F)F)c4)cc3)CC2)C1 (stereo partly drawn)
- DC50 [1]: 46 nM
- Emax [2]: 96.2%

Compound: O=C1CCC(N2C(=O)c3cccc(OCCCCCOc4ccc(CC(=O)Nc5cc(C6CCC6)[nH]n5)cc4)c3C2=O)C(=O)N1 (stereo not drawn)
- Activity [3]: 65%

Compound: C[C@H]1[C@H](C)CC[C@]2(C(=O)NCCCCOCCNc3cccc4c3C(=O)N(C3CCC(=O)NC3=O)C4=O)CC[C@]3(C)C(=CC[C@@H]4[C@@]5(C)CC[C@H](O)C(C)(C)C5CC[C@]43C)[C@H]12 (stereo partly drawn)
- pIC50 (HepG2): 6.64
- pIC50 (A549): 6.64
- pIC50 (Huh-7): 6.64

Compound: CCCCN(Cc1ccc(C(=O)NO)cc1)C(=O)Nc1ccc(OCn2cc(CCCCCCCNCc3ccc(-c4cccc5c4CN(C4CCC(=O)NC4=O)C5=O)cc3)nn2)cc1 (stereo not drawn)
- DC50 [4]: 1.5 nM

Compound: NC(=O)CC[C@H](NC(=O)[C@@H]1CC[C@@H]2CCN(C(=O)CCCCCC#Cc3cccc4c3CN(C3CCC(=O)NC3=O)C4=O)C[C@H](NC(=O)c3cc4cc(C(F)(F)P(=O)(O)O)ccc4[nH]3)C(=O)N21)C(=O)NC(c1ccccc1)c1ccccc1 (stereo partly drawn)
- Activity [5]: > 50%
- Activity [6]: > 50%
- Activity [7]: > 90%
- Activity [8]: > 50%

Compound: CC(=O)c1c(C)c2cnc(Nc3ccc(N4CCN(C(=O)CNCCCCNC(=O)COc5cccc6c5C(=O)N(C5CCC(=O)NC5=O)C6=O)CC4)cn3)nc2n(C2CCCC2)c1=O (stereo not drawn)
- DC50 (Protein cereblon/Basigin [9]): 4.4 nM

Compound: Cc1nnc2n1-c1sc(C#Cc3cnn(CCCC#Cc4cccc5c4CN(C4CCC(=O)NC4=O)C5=O)c3)c(Cc3ccccc3)c1COC2 (stereo not drawn)
- pIC50 (MV4-11): 11.08
- pIC50 (MOLM-13): 10.21
- pIC50 (RS4-11): 10.49

Compound: O=C1CCC(N2C(=O)c3cccc(NCCOCCCCCCCCNCCNc4nonc4/C(=N/O)Nc4ccc(F)c(Br)c4)c3C2=O)C(=O)N1 (stereo not drawn)
- Emax [10]: 93%

Compound: COc1cc2nc(N3CCN(C(=O)c4ccco4)CC3)nc(N)c2cc1OC [PRAZOSIN]
- pIC50 (PC-3): 4.93

Compound: COC(=O)C1=CC[C@@]23CC[C@@H]([C@@](C)(/C=C/C=C(\C)C(=O)NCCNc4cccc5c4C(=O)N(C4CCC(=O)NC4=O)C5=O)OC2=O)[C@@]3(OC(C)=O)CC1 (stereo partly drawn)
- DC50 (Protein cereblon/Basigin [11]): 6720 nM

Compound: O=C1CCC(N2C(=O)c3cccc(NCCCCCOCCNC(=O)c4ccc(CN(CC5CCNCC5)Sc5ccc(S(=O)(=O)N(Cc6ccc(Cl)cc6)C6CCCC6)cc5)cc4)c3C2=O)C(=O)N1 (stereo not drawn)
- Activity [12]: 85%

Compound: C=CC(=O)N1CCN(c2nc(NCCCN3CCN(CCCNc4cccc5c4C(=O)N(C4CCC(=O)NC4=O)C5=O)CC3)nc3c(F)c(-c4cc(O)cc5ccccc45)c(Cl)cc23)CC1 (stereo not drawn)
- DC50 [13]: 6000 nM
- DC50 [14]: 1200 nM

Compound: CCCCN(Cc1ccc(C(=O)NO)cc1)C(=O)Nc1ccc(NC(=O)CCCc2cn(CCOCCNc3cccc4c3C(=O)N(C3CCC(=O)NC3=O)C4=O)nn2)cc1 (stereo not drawn)
- pIC50 [15]: 8.49

Compound: CN(CCCNC(=O)CNc1cccc2c1C(=O)N(C1CCC(=O)NC1=O)C2=O)C(C)(C)/C=C(\C#N)C(=O)N1CCC[C@@H](n2nc(-c3ccc(Oc4ccccc4)cc3)c3c(N)ncnc32)C1 (stereo partly drawn)
- Activity [16]: 81%
